# Test results taken from patent US20250171437A1 (Agios Pharmaceuticals,Inc., priority 2022, published 2025).
# Biological target: T1, human PAH with the R408W mutation (A375 R408W cells) (Homo sapiens, UniProt P00439, R408W)
# T1 construct: expressed in transfected cells
# T1 sequence (P00439 1-452 R408W): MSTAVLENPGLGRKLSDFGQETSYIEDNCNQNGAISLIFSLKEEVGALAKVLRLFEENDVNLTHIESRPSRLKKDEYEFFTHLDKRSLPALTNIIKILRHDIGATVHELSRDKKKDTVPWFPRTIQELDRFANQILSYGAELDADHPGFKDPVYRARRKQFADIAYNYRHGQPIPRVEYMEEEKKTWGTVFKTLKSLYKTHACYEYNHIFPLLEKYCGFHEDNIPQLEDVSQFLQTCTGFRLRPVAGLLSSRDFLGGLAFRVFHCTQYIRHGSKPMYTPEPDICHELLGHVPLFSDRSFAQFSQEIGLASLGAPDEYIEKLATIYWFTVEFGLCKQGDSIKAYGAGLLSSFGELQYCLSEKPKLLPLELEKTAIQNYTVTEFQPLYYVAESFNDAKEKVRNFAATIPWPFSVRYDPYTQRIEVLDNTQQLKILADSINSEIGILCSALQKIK
# Experiment: Cell Based Phenylalanine Flux Assay
# Details: 24 hrs with compound, then 20 μM sepiapterin and 800 μM 13C9,15N-Phenylalanine for 4 hours, 13C-Tyrosine by LC-MS, average where tested multiple times
# Procedure: Cells expressing R408W PAH were made by transducing A375 cells with lentivirus encoding human PAH with the R408W mutation in pLVX-Puro, then selecting with puromycin until stable cell lines were generated. A375 R408W cells were seeded into 96 well plates in DMEM+10% FBS at a density of 40,000 cells/well one hour prior to compound addition. Compounds were resuspended in DMSO, and 2-fold serial dilutions were performed to generate a 10-point dose curve. Compounds were added to plated cells in a total volume of 100 μl, and a final DMSO concentration of 0.5%. Each compound was tested in duplicate. Following compound addition, cells were placed in a 5% CO2, 37° C. tissue culture incubator for 24 hrs. After the incubation period, 20 μM sepiapterin and 800 μM 13C9,15N-Phenylalanine were added. After 4 hours, cell media was removed. An aliquot of 10 μl of cell media was combined with 200 μl of extraction buffer (80% acetonitrile/20% H2O) for each well. Determination of ^13C-Tyrosine concentration was assessed by liquid chromatography mass spectrometry.
# Specific compounds disclosed herein were tested in the foregoing assay and they were determined to have an AC50 according to the following scores: (A) less than or equal to 0.500 μM, (B) greater than 0.500 and less than […], (C) greater than or equal to 1.000 and less than 5.000 μM, (D) greater than or equal to 5.000 μM, (E) no fit, and (NT) not tested, as shown below. Where a compound was tested multiple times, the average value of the tests is reported.
# [1] = A375 cells expressing R408W PAH
compound,measurement,setting,value
"CC(C)(O)c1nc(C(F)F)c(C(=O)N2CCc3[nH]cnc3[C@H]2c2nc3cc(F)cc(F)c3o2)o1 [Example 307, (S)-(4-(5,7-difluorobenzo[d]oxazol-2-yl)-6,7-dihydro-1H-imidazo[4,5-c]pyridin-5(4H)-yl)(4-(difluoromethyl)-2-(2-hydroxypropan-2-yl)oxazol-5-yl)methanone]",AC50,A375 R408W cells,≤ 0.5 µM
Cn1nc(C(C)(C)O)nc1C(=O)N1CCc2[nH]cnc2C1c1nc2cccc(F)c2o1 (stereo not shown),AC50,[1],≥ 5 µM
"O=C(c1ocnc1C(F)F)N1CCc2[nH]cnc2[C@@H]1c1nc2cc(C(F)(F)F)ccc2o1 [Example 330, (R)-(4-(difluoromethyl)oxazol-5-yl)(4-(5-(trifluoromethyl)benzo[d]oxazol-2-yl)-6,7-dihydro-1H-imidazo[4,5-c]pyridin-5(4H)-yl)methanone]",AC50,A375 R408W cells,≤ 0.5 µM
"CC(C)(C)c1ncc(C(=O)N2CCc3[nH]cnc3[C@H]2c2nc3cc(F)ccc3o2)o1 [Example 21, (S)-(2-(tert-butyl)oxazol-5-yl)(4-(5-fluorobenzo[d]oxazol-2-yl)-6,7-dihydro-1H-imidazo[4,5-c]pyridin-5(4H)-yl)methanone]",AC50,A375 R408W cells,≤ 0.5 µM
"CC(C)(O)c1nc(C(F)F)c(C(=O)N2CCc3[nH]cnc3[C@H]2c2nc3cc(Br)cc(F)c3o2)o1 [Example 571, (S)-(4-(5-bromo-7-fluorobenzo[d]oxazol-2-yl)-6,7-dihydro-1H-imidazo[4,5-c]pyridin-5(4H)-yl)(4-(difluoromethyl)-2-(2-hydroxypropan-2-yl)oxazol-5-yl)methanone]",AC50,A375 R408W cells,≤ 0.5 µM
O=C(c1nccs1)N1CCc2[nH]cnc2C1c1nc2ccc(Br)cc2o1 (stereo not shown),AC50,[1],≥ 5 µM
"O=C(c1ocnc1C1CC1)N1CCc2[nH]cnc2[C@@H]1c1nc2cc(F)ccc2o1 [Example 42, (R)-(4-cyclopropyloxazol-5-yl)(4-(5-fluorobenzo[d]oxazol-2-yl)-6,7-dihydro-1H-imidazo[4,5-c]pyridin-5(4H)-yl)methanone]",AC50,A375 R408W cells,1 to 5 µM
COCc1ccc2c(C(=O)N3CCc4[nH]cnc4C3c3nc4ccc(F)cc4o3)cnn2c1 (stereo not shown),AC50,[1],1 to 5 µM
"COCc1nc(C(F)F)c(C(=O)N2CCc3[nH]cnc3[C@H]2c2nc3cc(F)ccc3o2)o1 [Example 110, (S)-(4-(difluoromethyl)-2-(methoxymethyl)oxazol-5-yl)(4-(5-fluorobenzo[d]oxazol-2-yl)-6,7-dihydro-1H-imidazo[4,5-c]pyridin-5(4H)-yl)methanone]",AC50,A375 R408W cells,0.5 to 1 µM
Cc1nc(C2(O)CC2)oc1C(=O)N1CCc2[nH]cnc2C1c1nc2cc(F)ccc2o1 (stereo not shown),AC50,[1],≥ 5 µM
"Cc1ccc2oc([C@@H]3c4nc[nH]c4CCN3C(=O)c3ncnn3C)nc2c1 [Example 745, (S)-(1-methyl-1H-1,2,4-triazol-5-yl)(4-(5-methylbenzo[d]oxazol-2-yl)-6,7-dihydro-1H-imidazo[4,5-c]pyridin-5(4H)-yl)methanone]",AC50,A375 R408W cells,0.5 to 1 µM
"O=C(c1oc(-c2ccccn2)nc1C(F)F)N1CCc2[nH]cnc2[C@H]1c1nc2cccc(F)c2o1 [Example 587, (S)-(4-(difluoromethyl)-2-(pyridin-2-yl)oxazol-5-yl)(4-(7-fluorobenzo[d]oxazol-2-yl)-6,7-dihydro-1H-imidazo[4,5-c]pyridin-5(4H)-yl)methanone]",AC50,A375 R408W cells,≤ 0.5 µM
O=C(c1cnco1)N1CCc2[nH]cnc2C1c1nc2c(F)cc(F)cc2o1 (stereo not shown),AC50,[1],1 to 5 µM
"(R)-(4-(deuterium)-2-(2-hydroxypropan-2-yl)oxazol-5-yl)(4-fluoro-4-(5-fluorobenzo[d]oxazol-2-yl)-6,7-dihydro-1H-imidazo[4,5-c]pyridin-5(4H)-yl)methanone [Example 906]",AC50,A375 R408W cells,≥ 5 µM
"O=C(CCc1cncs1)N1CCc2[nH]cnc2[C@@H]1c1nc2cccc(F)c2o1 [Example 410, (R)-1-(4-(7-fluorobenzo[d]oxazol-2-yl)-6,7-dihydro-1H-imidazo[4,5-c]pyridin-5(4H)-yl)-3-(thiazol-5-yl)propan-1-one]",AC50,A375 R408W cells,1 to 5 µM
"Cn1cc(-c2nnc(C(=O)N3CCc4[nH]cnc4[C@@H]3c3nc4c(F)cccc4o3)o2)cn1 [Example 198, (R)-(4-(4-fluorobenzo[d]oxazol-2-yl)-6,7-dihydro-1H-imidazo[4,5-c]pyridin-5(4H)-yl)(5-(1-methyl-1H-pyrazol-4-yl)-1,3,4-oxadiazol-2-yl)methanone]",AC50,A375 R408W cells,1 to 5 µM
"O=C(c1cnn2cc(N3CCC(O)CC3)ccc12)N1CCc2[nH]cnc2[C@H]1c1nc2cc(F)cc(F)c2o1 [Example 699, (S)-(4-(5,7-difluorobenzo[d]oxazol-2-yl)-6,7-dihydro-1H-imidazo[4,5-c]pyridin-5(4H)-yl)(6-(4-hydroxypiperidin-1-yl)pyrazolo[1,5-a]pyridin-3-yl)methanone]",AC50,A375 R408W cells,1 to 5 µM
"COc1cccc2oc([C@@H]3c4nc[nH]c4CCN3C(=O)c3oc(C(C)(C)O)nc3C(F)F)nc12 [Example 427, (S)-(4-(difluoromethyl)-2-(2-hydroxypropan-2-yl)oxazol-5-yl)(4-(4-methoxybenzo[d]oxazol-2-yl)-6,7-dihydro-1H-imidazo[4,5-c]pyridin-5(4H)-yl)methanone]",AC50,A375 R408W cells,≤ 0.5 µM
"COc1cccc2nc([C@H]3c4nc[nH]c4CCN3C(=O)c3ncnn3C)oc12 [Example 776, (R)-(4-(7-methoxybenzo[d]oxazol-2-yl)-6,7-dihydro-1H-imidazo[4,5-c]pyridin-5(4H)-yl)(1-methyl-1H-1,2,4-triazol-5-yl)methanone]",AC50,A375 R408W cells,1 to 5 µM
"O=C(c1oc(C2(O)CC2)nc1C(F)F)N1CCc2[nH]cnc2[C@@H]1c1nc2c(F)cccc2o1 [Example 216, (R)-(4-(difluoromethyl)-2-(1-hydroxycyclopropyl)oxazol-5-yl)(4-(4-fluorobenzo[d]oxazol-2-yl)-6,7-dihydro-1H-imidazo[4,5-c]pyridin-5(4H)-yl)methanone]",AC50,A375 R408W cells,1 to 5 µM
O=C(C1CN(c2ccccn2)C1)N1CCc2[nH]cnc2C1c1nc2cc(F)ccc2o1 (stereo not shown),AC50,[1],≥ 5 µM
"COc1cccc2nc([C@@H]3c4nc[nH]c4CCN3C(=O)c3ocnc3C(F)F)oc12 [Example 457, (S)-(4-(difluoromethyl)oxazol-5-yl)(4-(7-methoxybenzo[d]oxazol-2-yl)-6,7-dihydro-1H-imidazo[4,5-c]pyridin-5(4H)-yl)methanone]",AC50,A375 R408W cells,≤ 0.5 µM
"O=C(c1nnc(-c2ccn(C(F)F)n2)o1)N1CCc2[nH]cnc2[C@@H]1c1nc2cccc(F)c2o1 [Example 861, (R)-(5-(1-(difluoromethyl)-1H-pyrazol-3-yl)-1,3,4-oxadiazol-2-yl)(4-(7-fluorobenzo[d]oxazol-2-yl)-6,7-dihydro-1H-imidazo[4,5-c]pyridin-5(4H)-yl)methanone]",AC50,A375 R408W cells,0.5 to 1 µM
"Cc1ccc2nc([C@H]3c4nc[nH]c4CCN3C(=O)c3nnc(-c4ccn(C)n4)o3)oc2c1 [Example 358, (R)-(5-(1-methyl-1H-pyrazol-3-yl)-1,3,4-oxadiazol-2-yl)(4-(6-methylbenzo[d]oxazol-2-yl)-6,7-dihydro-1H-imidazo[4,5-c]pyridin-5(4H)-yl)methanone]",AC50,A375 R408W cells,1 to 5 µM
"Cn1cncc1-c1nc(C(F)F)c(C(=O)N2CCc3[nH]cnc3[C@H]2c2nc3cc(F)ccc3o2)o1 [Example 687, (S)-(4-(difluoromethyl)-2-(1-methyl-1H-imidazol-5-yl)oxazol-5-yl)(4-(5-fluorobenzo[d]oxazol-2-yl)-6,7-dihydro-1H-imidazo[4,5-c]pyridin-5(4H)-yl)methanone]",AC50,A375 R408W cells,0.5 to 1 µM
"CC(C)(O)c1nc(C(F)(F)F)c(C(=O)N2CCc3[nH]cnc3[C@@H]2c2nc3c(F)cccc3o2)o1 [Example 258, (R)-(4-(4-fluorobenzo[d]oxazol-2-yl)-6,7-dihydro-1H-imidazo[4,5-c]pyridin-5(4H)-yl)(2-(2-hydroxypropan-2-yl)-4-(trifluoromethyl)oxazol-5-yl)methanone]",AC50,A375 R408W cells,1 to 5 µM
O=C(c1cnn2cc(Cl)ccc12)N1CCc2[nH]cnc2C1c1nc2cc(F)ccc2o1 (stereo not shown),AC50,[1],1 to 5 µM
"O=C(c1oc(-c2cccnc2)nc1C(F)F)N1CCc2[nH]cnc2[C@@H]1c1nc2cccc(F)c2o1 [Example 589, (R)-(4-(difluoromethyl)-2-(pyridin-3-yl)oxazol-5-yl)(4-(7-fluorobenzo[d]oxazol-2-yl)-6,7-dihydro-1H-imidazo[4,5-c]pyridin-5(4H)-yl)methanone]",AC50,A375 R408W cells,≤ 0.5 µM
